As a reminder, the T/C is the result in the treated group divided by that in the control group, in per cent.

Several values for one entry are separate records, joined by “and”; a condition that tells them apart may be missing. Equal values may be shown once. Numbered stars: 1 amine (or outer) side, 2 acyl side, 3 side chain; on linkers, the order of the positions; unused ones are H or OH. Bridge positions count the residues as written; N and C are the ends. Square brackets hold non-standard residues; d marks the D form. Peptide text beside a SMILES is read from it. * marks the point of attachment. X1 = CC(C)C(C)C(C(=O)[*:2])N(C)[*:1]; Picolinoyl(3-OH) = O=C(c1ncccc1O)*; NMePhg = CN[CH](C(=O)O)c1ccccc1; Hyp = O=C(O)[CH]1C[CH](O)CN1; Sar = CNCC(=O)O

For the experiment, the system named is Swiss mice, Sarcoma 180 sc, mean tumor weight T/C. The experiment can be described thus: NCI In Vivo Anticancer Drug Screen. Data for tumor model Sarcoma 180 (subcutaneous) in Swiss mice. To be noted: endpoint: mean tumor weight, higher = larger tumour. An outline of the steps: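 T/C ratio: treated over vehicle-treated controls, measuring survival or tumor size in transplanted-tumor mice.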

Take `NNC(=O)CCC(N)C(=O)O` (configuration not stated): the T/C (dose: 5.75 mg/kg/injection, schedule: Q#A X014 (ip), vehicle: carboxymethylcellulose (CMC)) was 97 % of control; the T/C (dose: 11.5 mg/kg/injection, schedule: Q#A X014 (ip), vehicle: carboxymethylcellulose (CMC)) is 90 % of control; the T/C (dose: 23.0 mg/kg/injection, schedule: Q#A X014 (ip), vehicle: carboxymethylcellulose (CMC)) was 118 % of control; the T/C (dose: 46.0 mg/kg/injection, schedule: Q#A X014 (ip), vehicle: carboxymethylcellulose (CMC)) is 70 % of control.

As for `CN(N=Nc1n[nH]nc1C(N)=O)c1ccccc1`, the T/C is 65 % of control (dose: 31.0 mg/kg/injection, schedule: Q01DX007 (ip), vehicle: carboxymethylcellulose (CMC)); 73 % of control (dose: 62.0 mg/kg/injection, schedule: Q01DX007 (ip), vehicle: carboxymethylcellulose (CMC)); 70 % of control (dose: 125.0 mg/kg/injection, schedule: Q01DX007 (ip), vehicle: carboxymethylcellulose (CMC)).

For the compound `Nc1nc2ncc(CNc3ccc(C(=O)NC(CCC(=O)O)C(=O)O)cc3)nc2c(=O)[nH]1` (configuration not stated), the T/C (dose: 6.31 mg/kg/injection, schedule: Q01DX007 (ip), vehicle: carboxymethylcellulose (CMC)) is 84 % of control; the T/C (dose: 12.62 mg/kg/injection, schedule: Q01DX007 (ip), vehicle: carboxymethylcellulose (CMC)) was 76 % of control; the T/C (dose: 25.25 mg/kg/injection, schedule: Q01DX007 (ip), vehicle: carboxymethylcellulose (CMC)) was 56 % of control; the T/C (dose: 50.5 mg/kg/injection, schedule: Q01DX007 (ip), vehicle: carboxymethylcellulose (CMC)) was 74 % of control.

Consider `CC(C)=CCC1=C(O)c2ccccc2C(=O)C1=O`, for which the T/C by setting is: (dose: 30.0 mg/kg/injection, schedule: Q01DX007 (ip), vehicle: water) 96 % of control; (dose: 50.0 mg/kg/injection, schedule: Q01DX007 (ip), vehicle: water) 97 % of control; (dose: 67.0 mg/kg/injection, schedule: Q01DX007 (ip), vehicle: other) 68 % of control; (dose: 100.0 mg/kg/injection, schedule: Q01DX007 (ip), vehicle: other) 90 % of control; (dose: 100.0 mg/kg/injection, schedule: Q01DX007 (ip), vehicle: water) 91 % of control and 107 % of control; (dose: 100.0 mg/kg/injection, schedule: Q#A X014 (oral), vehicle: other) 70 % of control. Further, the T/C was 73 % of control (dose: 150.0 mg/kg/injection, schedule: Q01DX007 (ip), vehicle: other); 46 % of control (dose: 150.0 mg/kg/injection, schedule: Q#A X014 (oral), vehicle: other); 42 % of control (dose: 200.0 mg/kg/injection, schedule: Q#A X014 (oral), vehicle: other).

`CC(C)Sc1nc(N)nc2c1ncn2C1OC(CO)C(O)C1O` (configuration not stated): the T/C runs as follows: (dose: 1.35 mg/kg/injection, schedule: Q#A X014 (ip), vehicle: methylcellulose (MC)) 69 % of control; (dose: 2.05 mg/kg/injection, schedule: Q#A X014 (ip), vehicle: methylcellulose (MC)) 95 % of control; (dose: 3.12 mg/kg/injection, schedule: Q#A X014 (ip), vehicle: methylcellulose (MC)) 53 % of control; (dose: 4.65 mg/kg/injection, schedule: Q#A X014 (ip), vehicle: methylcellulose (MC)) 86 % of control.

On to `C[C@]12C=CC(=O)C=C1[C@@H](F)C[C@@H]1[C@@H]2[C@@H](O)C[C@@]2(C)[C@H]1CC[C@]2(O)C(=O)CO`, for which the T/C runs as follows: (dose: 3.5 mg/kg/injection, schedule: Q#A X014 (sc), vehicle: steriod suspending solution) 85 % of control; (dose: 7.0 mg/kg/injection, schedule: Q#A X014 (sc), vehicle: steriod suspending solution) 98 % of control; (dose: 10.0 mg/kg/injection, schedule: Q#A X014 (sc), vehicle: steriod suspending solution) 76 % of control; (dose: 15.5 mg/kg/injection, schedule: Q#A X014 (sc), vehicle: steriod suspending solution) 72 % of control; (dose: 22.5 mg/kg/injection, schedule: Q#A X014 (sc), vehicle: steriod suspending solution) 67 % of control.

For the compound `NC(=O)SCC(=O)Nc1ccc2ncccc2c1`, the T/C runs as follows: (dose: 42.0 mg/kg/injection, schedule: Q#A X014 (ip), vehicle: methylcellulose (MC)) 84 % of control; (dose: 63.5 mg/kg/injection, schedule: Q#A X014 (ip), vehicle: methylcellulose (MC)) 76 % of control; (dose: 93.5 mg/kg/injection, schedule: Q#A X014 (ip), vehicle: methylcellulose (MC)) 58 % of control; (dose: 140.0 mg/kg/injection, schedule: Q#A X014 (ip), vehicle: methylcellulose (MC)) 56 % of control; (dose: 250.0 mg/kg/injection, schedule: Q01DX007 (ip), vehicle: other) 87 % of control; (dose: 500.0 mg/kg/injection, schedule: Q01DX007 (ip), vehicle: other) 46 % of control.

Turning to `NCCCC(NC(=O)CCCCCCCCN=C(N)N)C(O)CCCCCCCCN=C(N)N` (configuration not stated), the T/C (dose: 0.38 mg/kg/injection, schedule: Q01DX007 (ip), vehicle: carboxymethylcellulose (CMC)) is 100 % of control; the T/C (dose: 0.75 mg/kg/injection, schedule: Q01DX007 (ip), vehicle: carboxymethylcellulose (CMC)) was 97 % of control; the T/C (dose: 1.5 mg/kg/injection, schedule: Q01DX007 (ip), vehicle: carboxymethylcellulose (CMC)) is 113 % of control; the T/C (dose: 3.0 mg/kg/injection, schedule: Q01DX007 (ip), vehicle: carboxymethylcellulose (CMC)) is 76 % of control; the T/C (dose: 6.0 mg/kg/injection, schedule: Q01DX007 (ip), vehicle: carboxymethylcellulose (CMC)) is 92 % of control; the T/C (dose: 9.0 mg/kg/injection, schedule: Q01DX007 (ip), vehicle: carboxymethylcellulose (CMC)) is 123 % of control. The T/C was 68 % of control (dose: 12.0 mg/kg/injection, schedule: Q01DX007 (ip), vehicle: carboxymethylcellulose (CMC)) and 47 % of control (dose: 15.0 mg/kg/injection, schedule: Q01DX007 (ip), vehicle: carboxymethylcellulose (CMC)).

Take `CCOC(C)C(/C=N/NC(N)=S)=NNC(N)=S` (configuration not stated): the T/C is 82 % of control (dose: 15.0 mg/kg/injection, schedule: Q01DX007 (ip), vehicle: saline); 37 % of control (dose: 30.0 mg/kg/injection, schedule: Q01DX007 (ip), vehicle: saline); 47 % of control (dose: 60.0 mg/kg/injection, schedule: Q01DX007 (ip), vehicle: saline); 20 % of control (dose: 120.0 mg/kg/injection, schedule: Q01DX007 (ip), vehicle: saline).

As to `CC(C)CC1NC(=O)C(NC(=O)c2ncccc2O)C(C)OC(=O)C(c2ccccc2)N(C)C(=O)C(C)NC(=O)C(C(C)C(C)C)N(C)C(=O)CN(C)C(=O)C2CC(O)CN2C1=O` (configuration not stated) ({Picolinoyl(3-OH)}-TL[Hyp][Sar][X1]A[NMePhg]; ester 1-C; configuration not given here), the T/C is 85 % of control (dose: 6.25 mg/kg/injection, schedule: Q01DX007 (ip), vehicle: carboxymethylcellulose (CMC)); 106 % of control (dose: 25.0 mg/kg/injection, schedule: Q01DX007 (ip), vehicle: carboxymethylcellulose (CMC)); 114 % of control (dose: 50.0 mg/kg/injection, schedule: Q01DX007 (ip), vehicle: carboxymethylcellulose (CMC)); 67 % of control (dose: 75.0 mg/kg/injection, schedule: Q01DX007 (ip), vehicle: carboxymethylcellulose (CMC)); 100 % of control (dose: 100.0 mg/kg/injection, schedule: Q01DX007 (ip), vehicle: carboxymethylcellulose (CMC)); 98 % of control (dose: 200.0 mg/kg/injection, schedule: Q01DX007 (ip), vehicle: carboxymethylcellulose (CMC)).

On to `CO[C@H](C(=O)[C@@H](O)[C@@H](C)O)[C@@H]1Cc2cc3cc(OC4CC(OC5CC(O)C(O)C(C)O5)C(O)C(C)O4)c(C)c(O)c3c(O)c2C(=O)[C@H]1OC1CC(OC2CC(OC3CC(C)(O)C(O)C(C)O3)C(O)C(C)O2)C(O)C(C)O1` (some centres not stated), for which the T/C runs as follows: (dose: 0.25 mg/kg/injection, schedule: Q01DX007 (ip), vehicle: water) 72 % of control; (dose: 0.3 mg/kg/injection, schedule: Q01DX007 (ip), vehicle: water) 50 % of control; (dose: 0.3 mg/kg/injection, schedule: Q02DX004 (ip), vehicle: water) 74 % of control; (dose: 0.45 mg/kg/injection, schedule: Q01DX007 (ip), vehicle: water) 45 % of control; (dose: 0.45 mg/kg/injection, schedule: Q02DX004 (ip), vehicle: water) 80 % of control; (dose: 0.5 mg/kg/injection, schedule: Q01DX007 (ip), vehicle: water) 57 % of control. Also, the T/C by setting is: (dose: 0.6 mg/kg/injection, schedule: Q02DX004 (ip), vehicle: water) 47 % of control; (dose: 1.0 mg/kg/injection, schedule: Q01DX007 (ip), vehicle: water) 102 % of control; (dose: 1.0 mg/kg/injection, schedule: Q02DX004 (ip), vehicle: water) 80 % of control; (dose: 2.0 mg/kg/injection, schedule: Q01DX007 (ip), vehicle: water) 72 % of control; (dose: 2.0 mg/kg/injection, schedule: Q02DX004 (ip), vehicle: water) 67 % of control; (dose: 3.0 mg/kg/injection, schedule: Q02DX004 (ip), vehicle: water) 50 % of control. In addition, the T/C is 60 % of control (dose: 4.0 mg/kg/injection, schedule: Q02DX004 (ip), vehicle: water) and 50 % of control (dose: 5.0 mg/kg/injection, schedule: Q02DX004 (ip), vehicle: water).
